Measured values reported in US20050209278A1, “Piperidinyl- and piperazinyl-sulfonylmethyl hydroxamic acids and their use as protease inhibitors” (priority 2002, published 2005).

Key:
MMP-14 = molecular target: T1, MMP-14 (Homo sapiens, UniProt P50281); assay: In vitro MMP inhibition, Ki determination (fluorogenic substrate II); assay type: biochemical; settings: value not in parenthesis; read-out: MMP-14 Ki
T1 construct: The catalytic domain enzyme was expressed in E. coli inclusion bodies, solubilized in urea; made in house
Outline: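 Apparent Ki was fitted with Morrison's equation from reaction rates at a single low enzyme level. Enzyme was APMA- or trypsin-activated refolded MMP-14 catalytic domain, buffered at pH 7.5 with 10 mM CaCl2.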

MMP-9 = molecular target: T2, MMP-9 (Homo sapiens, UniProt P14780); assay: as above; assay type: biochemical; settings: value not in parenthesis
T2 construct: made in house; host or cells: MMP-9-transfected HT1080 cells (spent media)
Outline: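 HT1080-derived MMP-9, activated with APMA, trypsin or MMP-3, incubated 1 hr at room temperature with inhibitor and 4 μM fluorogenic substrate II (at or below Km) in pH 7.5 Tris/NaCl/CaCl2 buffer; ex 330/em 420 nm. Ki from Morrison-equation regression, without substrate correction.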

T2 sequence (P14780 107-707 limits assumed): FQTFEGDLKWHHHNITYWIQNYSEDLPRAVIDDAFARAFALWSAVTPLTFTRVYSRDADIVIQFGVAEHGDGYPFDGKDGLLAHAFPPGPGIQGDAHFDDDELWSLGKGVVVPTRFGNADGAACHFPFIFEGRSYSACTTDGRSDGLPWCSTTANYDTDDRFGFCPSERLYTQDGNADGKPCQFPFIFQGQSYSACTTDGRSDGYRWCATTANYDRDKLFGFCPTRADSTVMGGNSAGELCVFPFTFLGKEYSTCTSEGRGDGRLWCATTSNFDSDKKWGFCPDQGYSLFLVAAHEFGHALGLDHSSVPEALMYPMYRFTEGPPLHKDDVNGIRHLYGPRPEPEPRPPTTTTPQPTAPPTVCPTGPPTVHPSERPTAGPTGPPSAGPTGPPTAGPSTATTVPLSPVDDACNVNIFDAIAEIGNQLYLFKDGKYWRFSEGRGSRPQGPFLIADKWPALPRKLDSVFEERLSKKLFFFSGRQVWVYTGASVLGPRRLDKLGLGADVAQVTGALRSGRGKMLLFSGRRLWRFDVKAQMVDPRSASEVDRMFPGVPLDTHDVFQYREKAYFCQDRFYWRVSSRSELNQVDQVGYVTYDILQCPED

Compound | Ki (MMP-14) [nM] | Ki (MMP-9) [nM]
CCCCCCc1ccc(N2CCN(S(=O)(=O)C3(C(=O)NO)CCN(CCOC)CC3)CC2)cc1 [Example 199] | 4620 | 0.892
CCCCCc1cnc(N2CCN(S(=O)(=O)C3(C(=O)NO)CCOCC3)CC2)cn1 [Example 219] | 3210 | 0.46
O=C(NO)C1(S(=O)(=O)N2CCN(c3cnc(CCC(F)(F)F)cn3)CC2)CCOCC1 [Example 218] | 4570 | 2.29
CCCCc1nnc(N2CCN(S(=O)(=O)C3(C(=O)NO)CCOCC3)CC2)s1 [Example 214] | > 10000 | 220
O=C(NO)C1(S(=O)(=O)N2CCN(c3ccc(OCCN4CCCC4)cc3)CC2)CCOCC1 [Example 162] | > 10000 | 402
CCCC(C)Cc1ccc(N2CCN(S(=O)(=O)C3(C(=O)NO)CCN(CCOC)CC3)CC2)cc1 (stereo not shown) [Example 189] | > 10000 | 34.7
CCCCOc1ccc(N2CCN(S(=O)(=O)C3(C(=O)NO)CCN(C(=O)N(CC)CC)CC3)CC2)cc1 [Example 242] | 2390 | 1.14
CCCCC(=O)c1ccc(N2CCN(S(=O)(=O)C3(C(=O)NO)CCN(CCOC)CC3)CC2)cc1 [Example 177] | > 10000 | 18.6
COCCN1CCC(C(=O)NO)(S(=O)(=O)N2CCN(c3ccccn3)CC2)CC1 [Example 176] | 181 | 9.63
COCCN1CCC(C(=O)NO)(S(=O)(=O)N2CCN(c3ccc(OC(F)(F)F)cc3)CC2)CC1 [Example 202] | 623 | 4.67
COCCN1CCC(C(=O)NO)(S(=O)(=O)N2CCN(c3ccc(C)cc3)CC2)CC1 [Example 194] | 307 | 7.19
CCCCOc1ccc(N2CCN(S(=O)(=O)C3(C(=O)NO)CCN(c4ncccn4)CC3)CC2)cc1 [Example 159] | 2060 | 1.93
CCC(C)Cc1ccc(N2CCN(S(=O)(=O)C3(C(=O)NO)CCN(CCOC)CC3)CC2)cc1 (stereo not shown) [Example 190] | 6100 | 3.76
CCCCCc1ccc(N2CCN(S(=O)(=O)C3(C(=O)NO)CCOCC3)CC2)nn1 [Example 197] | > 10000 | 20.2
O=C(NO)C1(S(=O)(=O)N2CCN(c3ccc(SC(F)(F)F)cc3)CC2)CCOCC1 [Example 170] | 453 | 17.1
CCOCCSc1ccc(N2CCN(S(=O)(=O)C3(C(=O)NO)CCOCC3)CC2)cc1 [Example 234] | 2880 | 33.6
CCCCOc1ccc(N2CCN(S(=O)(=O)C3(C(=O)NO)CCN(CCOC)CC3)CC2)cn1 [Example 164] | 8880 | 7.53
CCCCOc1ccc(N2CCN(S(=O)(=O)C3(C(=O)NO)CCN(C(=O)N4CCN(C)CC4)CC3)CC2)cc1 [Example 230] | 2510 | 0.87
CCCCOc1ccc(N2CCN(S(=O)(=O)C3(C(=O)NO)CCN(C(=O)NC(C)(C)C)CC3)CC2)cc1 [Example 240] | 3960 | 1.03
CCCc1cnc(N2CCN(S(=O)(=O)C3(C(=O)NO)CCN(CCOC)CC3)CC2)nc1 [Example 178] | 2590 | 2.23
CC(C)Cc1ccc(N2CCN(S(=O)(=O)C3(C(=O)NO)CCOCC3)CC2)c(F)c1 [Example 213] | 4280 | 82.4

Further lines, results first:

Ki (MMP-14) [nM] | Ki (MMP-9) [nM] | Compound
> 10000 | 1380 | O=C(NO)C1(S(=O)(=O)N2CCN(c3ccc4c(c3)OC(F)(F)C(F)(F)O4)CC2)CCOCC1 [Example 67]
3650 | 14.7 | CCCCOc1c(F)cc(N2CCN(S(=O)(=O)C3(C(=O)NO)CCN(CCOC)CC3)CC2)cc1F [Example 165]
2810 | 0.588 | CCCCOc1ccc(N2CCN(S(=O)(=O)C3(C(=O)NO)CCN(Cc4nccn4C)CC3)CC2)cc1 [Example 245]
621 | 0.7 | O=C(NO)C1(S(=O)(=O)N2CCN(c3ccc(-c4ccc(F)cc4)cc3)CC2)CCOCC1 [Example 208]
2760 | 1.79 | CCCCOc1ccc(N2CCN(S(=O)(=O)C3(C(=O)NO)CCN(C(=O)c4cccs4)CC3)CC2)cc1 [Example 160]
3960 | 0.9 | CCCCOc1ccc(N2CCN(S(=O)(=O)C3(C(=O)NO)CCN(CCN(CC)CC)CC3)CC2)cc1 [Example 235]
> 10000 | 128 | CCCCOc1ccc(N2CCN(S(=O)(=O)C3(C(=O)NO)CCN(c4ccc(OC(F)(F)C(F)F)cc4)CC3)CC2)cc1 [Example 65]
> 10000 | 596 | CCCc1nnc(N2CCN(S(=O)(=O)C3(C(=O)NO)CCOCC3)CC2)s1 [Example 216]
458 | 0.2 | CCCCCc1ccc(N2CCN(S(=O)(=O)C3(C(=O)NO)CCOCC3)CC2)nc1 [Example 167]
> 10000 | 11.3 | CCCCOc1ccc(N2CCN(S(=O)(=O)C3(C(=O)NO)CCN(c4ccc(OC)cc4)CC3)CC2)cc1 [Example 249]
6980 | 9.11 | COCCN1CCC(C(=O)NO)(S(=O)(=O)N2CCN(c3ccc(CC(C)C)cc3)CC2)CC1 [Example 192]
> 10000 | 440 | CCCNC(=O)c1ccc(N2CCN(S(=O)(=O)C3(C(=O)NO)CCN(CCOC)CC3)CC2)cc1 [Example 175]
2430 | 1.2 | CCCCOc1ccc(N2CCN(S(=O)(=O)C3(C(=O)NO)CCN(C(=O)c4ccco4)CC3)CC2)cc1 [Example 156]
1530 | 0.71 | CCCCOc1ccc(N2CCN(S(=O)(=O)C3(C(=O)NO)CCN(C(=O)N4CCCC4)CC3)CC2)cc1 [Example 231]
110 | 0.62 | CCCCCc1ccc(N2CCN(S(=O)(=O)C3(C(=O)NO)CCN(C(=O)CC)CC3)CC2)cc1 [Example 206]
3080 | 0.972 | CCCCOc1ccc(N2CCN(S(=O)(=O)C3(C(=O)NO)CCN(CCN4CCOCC4)CC3)CC2)cc1 [Example 233]
3510 | 2.3 | CCCCOc1ccc(N2CCN(S(=O)(=O)C3(C(=O)NO)CCSCC3)CC2)cc1 [Example 232]
842 | 0.28 | CCCc1ccc(N2CCN(S(=O)(=O)C3(C(=O)NO)CCN(CCOC)CC3)CC2)cc1 [Example 200]
> 10000 | 7.71 | CCCCOc1ccc(N2CCN(S(=O)(=O)C3(C(=O)NO)CC3)CC2)cc1 [Example 63]
> 10000 | 21.5 | CCCCOc1ccc(N2CCN(S(=O)(=O)C3(C(=O)NO)CCS(=O)(=O)CC3)CC2)cc1 [Example 222]
> 10000 | 2.61 | CCCCCc1ccc(N2CCN(S(=O)(=O)C3(C(=O)NO)CCN(S(=O)(=O)N(C)C)CC3)CC2)cc1 [Example 236]
2910 | 28.9 | COCCN1CCC(C(=O)NO)(S(=O)(=O)N2CCN(c3ccc(C(C)=O)cc3)CC2)CC1 [Example 174]
1510 | 0.45 | CCCCc1ccc(N2CCN(S(=O)(=O)C(C)C(=O)NO)CC2)nc1 (stereo not shown) [Example 217]
2760 | 4.28 | CCCCOc1ccc(N2CCN(S(=O)(=O)C3(C(=O)NO)CCN(c4nccs4)CC3)CC2)cc1 [Example 157]
> 10000 | 2.22 | COCCN1CCC(C(=O)NO)(S(=O)(=O)N2CCN(c3ccc(OCC(C)C)c(F)c3)CC2)CC1 [Example 166]
4470 | 141 | O=C(NO)C1(S(=O)(=O)N2CCN(c3cnc(CCC(F)(F)C(F)(F)F)cn3)CC2)CCOCC1 [Example 210]
